Consider ten compounds from patent US11072741B2, “Optically anisotropic layer, method for producing the optically anisotropic layer, a laminate, polarizing plate, display device, liquid crystal compound, method for producing the liquid crystal compound, and carboxylic acid compound” (FUJIFILM Corporation, priority 2014, dated 2021).

Structures are written as SMILES.

Data set [1] is described as follows: Evaluation of phase transition temperature by polarizing microscope. Particulars: for Phase Transition Temperature Evaluation of Decrease: versus comparative compound with the same Ar and side chain portion of Formula (Ia). It is filed as physicochemical. From the text: Here, the temperature at which the compound transitions from the smectic phase to the nematic phase may be easily measured by observation of the composition employing polarized light microscopy. For example, in the nematic phase, a schlieren texture specific to the nematic phase is observed, while the texture transitions to a focal conic fan texture in a smectic A phase. Therefore, the phase transition temperature can be measured by observing the textures with a polarizing microscope while increasing or decreasing the temperature.
The phase transition temperatures of the synthesized liquid crystal compounds of the Examples and Comparative Examples were observed using a polarizing microscope to evaluate the degrees of temperature decrease. Specifically, the compounds of the Examples were compared to the compounds of the Comparative Examples, which have different structures for the side chain portions thereof. That is, the phase transition temperature of a compound of a Comparative Example having Ar (the aromatic ring at the center of General Formula 1) in common with the Examples and a side chain portion represented by Formula (Ia) below was used as a reference. Evaluations of A through C were assigned according to the degree of temperature decrease from the reference phase transition temperature.
(§1) For example, compound (I-1) and (I-2) were compared to Comparative Compound (Ia-1), and Compound (III-3) was compared to Comparative Compound (IIIa-3). The evaluation was carried out based on the following criteria.
A: decrease in melting point or Sm-N (smectic-nematic) transition temperature is 20° C. or greater
B: decrease in melting point or Sm-N (smectic-nematic) transition temperature is 5° C. or greater and less than 20° C.
C: decrease in melting point or Sm-N (smectic-nematic) transition temperature is less than 5° C.
With respect to the phase transition temperature, the numerical value in parentheses represents the numerical value during temperature decrease, and other numerical values represent a numerical value during temperature increase.

A short description of data set [2]: Measurement and evaluation of solubility in MEK and CPN. The class given is physicochemical. Particulars: for Solubility CPN wt %: cyclopentanone; for Solubility CPN wt % / Solubility MEK wt %: room temperature, visual observation, 5 wt % increments; for Solubility MEK wt %: methyl ethyl ketone; for Solubility Evaluation: versus comparative compound with the same Ar and side chain portion of Formula (Ia). On the procedure:
Solubility measurements of the synthesized liquid crystal compounds were conducted by the following method. 50 mg of each compound was weighted into a 1.5 mL sample bottle, and solvent was added until the solid component became 40 wt % (75 mg). The solubility was determined to be 40 wt % if clear under visual observation after shaking well manually at room temperature. If undissolved residue was present, solvent was added such that the solid component became 35 wt % (+18 mg). The solubility was determined to be 35 wt % if clear under visual observation after shaking well manually at room temperature. If undissolved residue was present, solvent was added such that the solid component became 30 wt %. Similar operations were performed in increments of 5 wt %, and repeated until the solid component became 5 wt %. If undissolved residue was present, the solubility was determined to be less than 5 wt % (<5 wt %), and measurements were completed. MEK (methyl ethyl ketone) and CPN (cyclopentanone) were utilized as solvents for measuring solubility.
The measured values of solubility were evaluated. The evaluations were conducted by using solubility of a compound of a Comparative Example having Ar (the aromatic ring at the center of General Formula 1) in common with the Examples and a side chain portion represented by Formula (Ia) as a reference, in a manner similar to that in the evaluation of the phase transition temperature. Evaluations of A through C were assigned according to the degree of improvement in solubility from the reference solubility.
as §1
A: solubility improved twofold or greater in plural solvents or a single solvent
B: solubility was the same or improved up to twofold in plural solvents or a single solvent
C: no improvement in solubility in plural solvents or a single solvent

Setting [3] is: value in parentheses: during temperature decrease.

`C=CC(=O)OCCOC(=O)CCC(=O)OCCc1ccc(OC(=O)[C@H]2CC[C@H](C(=O)Oc3ccc(OC(=O)[C@H]4CC[C@H](C(=O)Oc5ccc(CCOC(=O)CCC(=O)OCCOC(=O)C=C)cc5)CC4)c4c3SC(=C(C#N)C#N)S4)CC2)cc1` [Compound I-1] returned a melting point of 108 °C. Further, in data set [1] (during temperature increase), the “TNi(° C.) Isotropic Phase Transition Point” value was 172 °C and the “Tsm—N(° C.) Sm—N Transition Point” value stood at 140 °C. In addition, the “Phase Transition Temperature Evaluation of Decrease” value in data set [1] is “A (decrease in melting point or Sm-N (smectic-nematic) transition temperature is 20 °C or greater)”. In addition, in data set [2], the “Solubility CPN wt %” value was 40 wt %, the “Solubility MEK wt %” value amounted to 20 wt % and the “Solubility Evaluation” value was “A (solubility improved twofold or greater in plural solvents or a single solvent)”.

Turning to `C=C(C)C(=O)OCCOC(=O)CCC(=O)OCCc1ccc(OC(=O)[C@H]2CC[C@H](C(=O)Oc3ccc(OC(=O)[C@H]4CC[C@H](C(=O)Oc5ccc(CCOC(=O)CCC(=O)OCCOC(=O)C(=C)C)cc5)CC4)c4c3SC(=C(C#N)C#N)S4)CC2)cc1` [Compound I-2], the melting point was found to be 105 °C. Further, in data set [1] (during temperature increase), the “TNi(° C.) Isotropic Phase Transition Point” value was determined as 168 °C and the “Tsm—N(° C.) Sm—N Transition Point” value came out at 130 °C. Moreover, in data set [1], the “Phase Transition Temperature Evaluation of Decrease” value is “A (decrease in melting point or Sm-N (smectic-nematic) transition temperature is 20 °C or greater)”. Further, in data set [2], the “Solubility CPN wt %” value stood at 20 wt %, the “Solubility MEK wt %” value worked out at 10 wt % and the “Solubility Evaluation” value was “A (solubility improved twofold or greater in plural solvents or a single solvent)”.

For `C=CC(=O)OCCCCOC(=O)CCC(=O)OCCc1ccc(OC(=O)[C@H]2CC[C@H](C(=O)Oc3ccc(OC(=O)[C@H]4CC[C@H](C(=O)Oc5ccc(CCOC(=O)CCC(=O)OCCCCOC(=O)C=C)cc5)CC4)c4c3SC(=C(C#N)C#N)S4)CC2)cc1` [Compound I-3], the melting point stood at 107 °C. Besides, in data set [1] (during temperature increase), the “TNi(° C.) Isotropic Phase Transition Point” value was 156 °C and the “Tsm—N(° C.) Sm—N Transition Point” value was 126 °C. The “Phase Transition Temperature Evaluation of Decrease” value in data set [1] was “A (decrease in melting point or Sm-N (smectic-nematic) transition temperature is 20 °C or greater)”. For the same compound, in data set [2], the “Solubility CPN wt %” value is reported as 25 wt %, the “Solubility MEK wt %” value turned out to be 15 wt % and the “Solubility Evaluation” value is reported as “A (solubility improved twofold or greater in plural solvents or a single solvent)”.

As to `C=CC(=O)OCCOCCOC(=O)CCC(=O)OCCc1ccc(OC(=O)[C@H]2CC[C@H](C(=O)Oc3ccc(OC(=O)[C@H]4CC[C@H](C(=O)Oc5ccc(CCOC(=O)CCC(=O)OCCOCCOC(=O)C=C)cc5)CC4)c4c3SC(=C(C#N)C#N)S4)CC2)cc1` [Compound I-5], the melting point came to 110 °C. For the same compound, in data set [1] (during temperature increase), the “TNi(° C.) Isotropic Phase Transition Point” value is 172 °C and the “Tsm—N(° C.) Sm—N Transition Point” value was 146 °C. In data set [1], the “Phase Transition Temperature Evaluation of Decrease” value was “A (decrease in melting point or Sm-N (smectic-nematic) transition temperature is 20 °C or greater)”. Besides, in data set [2], the “Solubility CPN wt %” value came out at 40 wt %, the “Solubility MEK wt %” value is recorded as 15 wt % and the “Solubility Evaluation” value is “A (solubility improved twofold or greater in plural solvents or a single solvent)”.

Regarding `C=CC(=O)OCCOC(=O)COCC(=O)OCCc1ccc(OC(=O)[C@H]2CC[C@H](C(=O)Oc3ccc(OC(=O)[C@H]4CC[C@H](C(=O)Oc5ccc(CCOC(=O)COCC(=O)OCCOC(=O)C=C)cc5)CC4)c4c3SC(=C(C#N)C#N)S4)CC2)cc1` [Compound I-6], the melting point turned out to be 110 °C. In data set [1] (during temperature increase), the “TNi(° C.) Isotropic Phase Transition Point” value is 172 °C and the “Tsm—N(° C.) Sm—N Transition Point” value turned out to be 146 °C. Further, the “Phase Transition Temperature Evaluation of Decrease” value in data set [1] is “A (decrease in melting point or Sm-N (smectic-nematic) transition temperature is 20 °C or greater)”. In data set [2], the “Solubility CPN wt %” value was 20 wt %, the “Solubility MEK wt %” value stood at 10 wt % and the “Solubility Evaluation” value is recorded as “A (solubility improved twofold or greater in plural solvents or a single solvent)”.

`C=C(C)C(=O)OCCOCCNC(=O)OCCc1ccc(OC(=O)[C@H]2CC[C@H](C(=O)Oc3ccc(OC(=O)[C@H]4CC[C@H](C(=O)Oc5ccc(CCOC(=O)NCCOCCOC(=O)C(=C)C)cc5)CC4)c4c3SC(=C(C#N)C#N)S4)CC2)cc1` [Compound I-7] registered a melting point of 130 °C. For the same compound, in data set [1] (during temperature increase), the “TNi(° C.) Isotropic Phase Transition Point” value was 195 °C and the “Tsm—N(° C.) Sm—N Transition Point” value came out at 145 °C. For the same compound, the “Phase Transition Temperature Evaluation of Decrease” value in data set [1] is “B (decrease in melting point or Sm-N (smectic-nematic) transition temperature is 5 °C or greater and less than 20° C.)”. Moreover, in data set [2], the “Solubility CPN wt %” value is reported as 25 wt %, the “Solubility MEK wt %” value was found to be 10 wt % and the “Solubility Evaluation” value was “A (solubility improved twofold or greater in plural solvents or a single solvent)”.

As to `C=CC(=O)OCCOC(=O)CCC(=O)OCCc1ccc(OC(=O)[C@H]2CC[C@H](C(=O)Oc3ccc(OC(=O)[C@H]4CC[C@H](C(=O)Oc5ccc(CCOC(=O)CCC(=O)OCCOC(=O)C=C)cc5)CC4)c4c3SC(=C(C#N)C(=O)OCCC(C)(C)O)S4)CC2)cc1` [III-7], the “TNi(° C.) Isotropic Phase Transition Point” value in data set [1] (setting [3]) is listed as “(50) ° C”. Besides, the “Phase Transition Temperature Evaluation of Decrease” value in data set [1] is “A (decrease in melting point or Sm-N (smectic-nematic) transition temperature is 20 °C or greater)”. In addition, in data set [2], the “Solubility CPN wt %” value is listed as 40 wt %, the “Solubility MEK wt %” value was determined as 40 wt % and the “Solubility Evaluation” value is “A (solubility improved twofold or greater in plural solvents or a single solvent)”.

Regarding `C=CC(=O)OCCOC(=O)CCC(=O)OCCc1ccc(OC(=O)[C@H]2CC[C@H](C(=O)Oc3cc(CC)c(OC(=O)[C@H]4CC[C@H](C(=O)Oc5ccc(CCOC(=O)CCC(=O)OCCOC(=O)C=C)cc5)CC4)c4c3SC(=C(C#N)C#N)S4)CC2)cc1` [IV-2], in data set [1] (setting [3]), the “TNi(° C.) Isotropic Phase Transition Point” value is “(113) ° C” and the “Tsm—N(° C.) Sm—N Transition Point” value is given as “(61) ° C”. In addition, in data set [2], the “Solubility CPN wt %” value is recorded as 40 wt % and the “Solubility MEK wt %” value amounted to 40 wt %.

For the compound `C=CC(=O)OCCOC(=O)CCC(=O)OCCc1ccc(OC(=O)[C@H]2CC[C@H](C(=O)Oc3cc(C(C)(C)C)c(OC(=O)[C@H]4CC[C@H](C(=O)Oc5ccc(CCOC(=O)CCC(=O)OCCOC(=O)C=C)cc5)CC4)c4c3SC(=C(C#N)C#N)S4)CC2)cc1` [IV-6], the “TNi(° C.) Isotropic Phase Transition Point” value in data set [1] (setting [3]) was “(58) ° C”. Also, the “Phase Transition Temperature Evaluation of Decrease” value in data set [1] was “A (decrease in melting point or Sm-N (smectic-nematic) transition temperature is 20 °C or greater)”. Moreover, in data set [2], the “Solubility CPN wt %” value was 40 wt %, the “Solubility MEK wt %” value amounted to 40 wt % and the “Solubility Evaluation” value is given as “A (solubility improved twofold or greater in plural solvents or a single solvent)”.

Take `C=CC(=O)OCCCCCCOc1ccc(OC(=O)[C@H]2CC[C@H](C(=O)Oc3cc(C(C)(C)C)c(OC(=O)[C@H]4CC[C@H](C(=O)Oc5ccc(OCCCCCCOC(=O)C=C)cc5)CC4)c4c3SC(=C(C#N)C#N)S4)CC2)cc1` [IVa-6, reference compound]: the “TNi(° C.) Isotropic Phase Transition Point” value in data set [1] (setting [3]) is “(167) ° C”. Besides, in data set [2], the “Solubility CPN wt %” value is recorded as 10 wt % and the “Solubility MEK wt %” value is <5 wt %.
